For ten compounds, IC50, selectivity ratio and CC50 results are on record in ChEMBL document CHEMBL5032525, “In vitro, ex vivo and in vivo short-term screening of DHEA nitrate derivatives activity over Trypanosoma cruzi Ninoa and TH strains from Oaxaca State, México” (Bioorg Med Chem, 2021).

In series [1] the test system is Trypanosoma cruzi. Briefly: microbe, parasite or virus in culture. Format: functional, organism-based. The conditions noted are these: MHOM/MX/1994/Ninoa, 24 h.
Description: Antitrypanosomal activity against Trypanosoma cruzi MHOM/MX/1994/Ninoa infected in animal assessed as reduction in viable parasite in blood measured after 24 hrs by neubauer chamber assay
The nature of series [2]: in vitro. The conditions noted are these: mouse.
Description: Selectivity index, ratio of CC50 for mouse J774.2 cells to IC50 for Trypanosoma cruzi MHOM/MX/1994/Ninoa
Series [3] in a line: in vitro. Particulars: mouse. This is another data set of the same source.
Description: Selectivity index, ratio of CC50 for mouse J774.2 cells to IC50 for Trypanosoma cruzi ITRI/MX/2018/TH
Series [4] can be described thus: Cytotoxicity against mouse J774.2 cells assessed as reduction in cell viability measured after 48 hrs by resazurin dye based assay.
Series [5] has as its system Trypanosoma cruzi. Briefly: microbe, parasite or virus in culture. Format: functional, organism-based. Particulars: ITRI/MX/2018/TH, 48 h.
Description: Trypanocidal activity against Trypanosoma cruzi ITRI/MX/2018/TH assessed as inhibition of parasite growth measured after 48 hrs by MTT assay
Series [6] relates to Trypanosoma cruzi. Briefly: microbe, parasite or virus in culture. It counts as functional, organism-based. Particulars: MHOM/MX/1994/Ninoa, 48 h.
Description: Trypanocidal activity against Trypanosoma cruzi MHOM/MX/1994/Ninoa assessed as inhibition of parasite growth measured after 48 hrs by MTT assay

Structures are written as SMILES.

As usually defined, the IC50 is the point on the concentration scale where inhibition reaches its midpoint. Higher therefore signals lower potency. As a reminder, the CC50 is the concentration giving 50% cytotoxicity.

As to `C#C[C@]1(O)CC[C@H]2[C@@H]3CC=C4C[C@@H](O[N+](=O)[O-])CC[C@]4(CO[N+](=O)[O-])[C@H]3CC[C@@]21C`, the IC50 in the series with Trypanosoma cruzi [1] is over 300 µM; in the series on Trypanosoma cruzi [5], 321 µM; with Trypanosoma cruzi [6], 2.8 µM. In addition, the figures for the selectivity ratio in “in vitro [2]” (J774.2 cells) and in “in vitro [3]” (J774.2 cells) were 14.2 and 0.13, respectively. In addition, in series [4] (J774.2 cells), the CC50 at 48 h was determined as 39.8 µM.
On to `C[C@]12CC[C@H](O[N+](=O)[O-])CC1=CC[C@@H]1[C@@H]2CC[C@]2(C)C(=O)CC[C@@H]12`, for which the IC50 in the series with Trypanosoma cruzi [1] was over 300 µM; with Trypanosoma cruzi [5], 0.2 µM; with Trypanosoma cruzi [6] it was 33.2 µM. Besides, the selectivity ratio in the series “in vitro [2]” (J774.2 cells) was found to be 0.01; in the series “in vitro [3]” (J774.2 cells), 1. The half-maximal cytotoxic concentration (CC50) at 48 h in series [4] (J774.2 cells) was found to be 0.2 µM.
As for `C#C[C@]1(O[N+](=O)[O-])CC[C@H]2[C@@H]3CC=C4C[C@@H](O[N+](=O)[O-])CC[C@]4(CO[N+](=O)[O-])[C@H]3CC[C@@]21C`, the 50% inhibitory concentration (IC50) in the series with Trypanosoma cruzi [1] was over 300 µM; with Trypanosoma cruzi [5] it was 321 µM; in the series with Trypanosoma cruzi [6], 2.12 µM. Besides, the selectivity ratio came to 11 in the series “in vitro [2]” (J774.2 cells) and 0.07 in “in vitro [3]” (J774.2 cells). Also, the CC50 at 48 h in series [4] (J774.2 cells) came to 22.3 µM.
`C[C@]12CC[C@H]3[C@@H](CC=C4C[C@@H](O[N+](=O)[O-])CC[C@@]43CO[N+](=O)[O-])[C@@H]1CCC2=O`: the IC50 with Trypanosoma cruzi [1] worked out at 295 µM; in the series with Trypanosoma cruzi [5], 430 µM; with Trypanosoma cruzi [6], 48.3 µM. Besides, the figures for the selectivity ratio in “in vitro [2]” (J774.2 cells) and in “in vitro [3]” (J774.2 cells) were 2.68 and 0.3, respectively. The cytotoxic concentration (CC50) at 48 h in series [4] (J774.2 cells) worked out at 130 µM.
As to `C[C@]12CC[C@H]3[C@@H](CC=C4C[C@@H](O[N+](=O)[O-])CC[C@@]43C)[C@@H]1CC[C@@H]2O[N+](=O)[O-]`, the IC50 in the series with Trypanosoma cruzi [1] is over 300 µM; with Trypanosoma cruzi [5], 77 µM; with Trypanosoma cruzi [6] it was 347 µM. Moreover, the values for the selectivity ratio in the series “in vitro [2]” (J774.2 cells) and in “in vitro [3]” (J774.2 cells) were 0.44 and 1.89, respectively. In series [4] (J774.2 cells), the CC50 at 48 h is 151 µM.
Turning to `C[C@]12CC[C@H]3[C@@H](CC=C4C[C@@H](O)CC[C@@]43CO)[C@@H]1CCC2=O`, the IC50 was over 300 µM with Trypanosoma cruzi [1], 476 µM with Trypanosoma cruzi [5] and 36.2 µM in the series on Trypanosoma cruzi [6]. Also, the selectivity ratio in the series “in vitro [2]” (J774.2 cells) was found to be 2.08; in “in vitro [3]” (J774.2 cells) it was 0.15. Also, the CC50 at 48 h in series [4] (J774.2 cells) is 75.4 µM.
Take `C[C@]12CC[C@H]3[C@@H](CC=C4C[C@@H](O)CC[C@@]43C)[C@@H]1CC[C@@H]2O` [ANDROSTENEDIOL]: the results for the IC50 in the series on Trypanosoma cruzi [1], in the series with Trypanosoma cruzi [5] and in the series on Trypanosoma cruzi [6] were over 300 µM, 37.1 µM and 2.23 µM, respectively. The selectivity ratio in the series “in vitro [2]” worked out at 125; in the series “in vitro [3]” it was 7.5. In series [4] (j774.2), the cytotoxic concentration (CC50) at 48 h came to 278 µM.
In the case of `O=C(Cn1ccnc1[N+](=O)[O-])NCc1ccccc1` [BENZNIDAZOLE], the IC50 with Trypanosoma cruzi [5] came out at 39.1 µM.
On to `CC1CS(=O)(=O)CCN1/N=C/c1ccc([N+](=O)[O-])o1` (stereo unspecified) [NIFURTIMOX], for which the IC50 in the series with Trypanosoma cruzi [5] stood at 19.3 µM; with Trypanosoma cruzi [6], 7.09 µM.
Turning to `C[C@]12CC[C@H](O)CC1=CC[C@@H]1[C@@H]2CC[C@]2(C)C(=O)CC[C@@H]12` [PRASTERONE], the half-maximal inhibitory concentration (IC50) is over 300 µM with Trypanosoma cruzi [1], 13.8 µM in the series on Trypanosoma cruzi [5] and 62 µM in the series on Trypanosoma cruzi [6]. The selectivity ratio was 3.19 in the series “in vitro [2]” (J774.2 cells) and 14.3 in “in vitro [3]” (J774.2 cells). Moreover, the cytotoxic concentration (CC50) at 48 h in series [4] (J774.2 cells) was 198 µM.
